{
  "source": "paper PMC10791743",
  "about": "“Selective CK1α degraders exert antiproliferative activity against a broad range of human cancer cell lines” (Nature Communications, 2024)",
  "key": {"[1]": {"tested_on": "MOLM-13 cells overexpressing FLAG-tagged wild type CK1α", "experiment": "CK1α mutant rescue, CTG viability, FLAG-CK1α wild type MOLM-13", "assay_type": "cell-based, human", "procedure": "To evaluate the contribution of the CK1α degradation in SJ3149-mediated cytotoxicity, we utilized the degradation-resistant mutant CK1α G40N[41]. MOLM-13 cells were transduced with lentivirus to overexpress FLAG-tagged wild type CK1α or the G40N mutant, which removes the essential glycine in the CK1α degron G-loop.\nThe media was changed after cells rested in the 37 °C incubator overnight. […] As described above in the Molecular Glue Library Screening section, transduced MOLM-13 cells were seeded in 384-well plates at 1250 cells per well and allowed to rest overnight. 30 nl of CK1α degraders of interest were deposited on the cells using an Echo 650 acoustic liquid handler […]. […] This was done twice for a total of six technical replicates."}, "MOLM-13 cells": {"tested_on": "MOLM-13 cells", "experiment": "Lenalidomide competition assay (40 μM lenalidomide), MOLM-13 viability", "assay_type": "cell-based, human", "details": "lenalidomide 40 μM", "procedure": "Having identified SJ7095 as a compound with a potent antiproliferative effect in MOLM-13 cells, we next examined whether the observed effect was CRBN-dependent. […] In an orthogonal approach, we tested SJ7095 in wild-type and CRBN-knockout MOLM-13 cells in a cell viability assay (Supplementary Fig. 1b).\nMOLM-13 cells were plated in Corning 8804BC white 384-well assay plates at the appropriate cell number per well and incubated overnight at 37 °C in a humidified 5 % CO2 incubator. Compounds were transferred to the assay plate from a dose-response plate using a Labcyte Echo 650 Acoustic Liquid Handler (Beckman Coulter , USA). Cytotoxicity was determined following 72 h of incubation using Promega’s CellTiter-Glo reagent according to the manufacturer’s recommendation.\nLuminescence was measured on the Envision plate reader (PerkinElmer, USA). Raw luminescence relative light unit (RLU) values for each compound at each concentration were normalized to obtain % activity using the following equation (1): 100 × [(mean(negctrl) – compound)/(mean (negctrl) – mean (posctrl))]. The % activity was converted to % viability using the following equation (2):\n(100 – % activity), and then pooled from replicate experiments prior to fitting. Here, negctrl and posctrl refer to the negative (DMSO) and positive controls (staurosporine) on each plate. […]"}},
  "note": "“And” between values parts separate entries of the source, which are not always exact repeats. Identical values can stand only once.",
  "data": [
    {"smiles": "O=C1CCC(N2Cc3cc(Nc4noc5ccccc45)ccc3C2=O)C(=O)N1", "note": "(stereo not drawn) [SJ3149]", "values": [
      {"measurement": "cell viability percentages, CK1a", "setting": "[1]; Concentration 0.000542", "value": "105.205% and 58.6715% and 64.466% and 67.6161% and 69.6541% and 82.1036%"},
      {"measurement": "cell viability percentages, CK1a", "setting": "[1]; Concentration 0.001625", "value": "74.2908% and 52.9731% and 67.1789% and 57.7783% and 62.7672% and 68.828%"},
      {"measurement": "cell viability percentages, CK1a", "setting": "[1]; Concentration 0.004875", "value": "36.1307% and 42.7391% and 40.1045% and 39.1839% and 40.0413% and 49.9053%"},
      {"measurement": "cell viability percentages, CK1a", "setting": "[1]; Concentration 0.043872", "value": "2.187% and 2.943% and 4.508% and 8.798% and 6.315% and 7.182%"},
      {"measurement": "cell viability percentages, CK1a", "setting": "[1]; Concentration 0.131617", "value": "3.39% and 3.498% and 5.044% and 4.581% and 3.4782% and 4.037%"},
      {"measurement": "cell viability percentages, CK1a", "setting": "[1]; Concentration 0.394851", "value": "2.449% and 1.756% and 2.718% and 2.322% and 1.473% and 1.9709%"},
      {"measurement": "cell viability percentages, CK1a", "setting": "[1]; Concentration 1.18455", "value": "1.709% and 1.723% and 2.012% and 1.573% and 1.103% and 1.1327%"},
      {"measurement": "cell viability percentages, CK1a", "setting": "[1]; Concentration 3.55366", "value": "1.548% and 0.8978% and 0.8701% and 0.5259% and 0.4164% and 0.8076%"},
      {"measurement": "Bottom (line fit, sigmoidal 4PL) of cell viability, CK1a", "setting": "[1]; FLAG-CK1a WT cells", "value": 1.012, "unit": "%"},
      {"measurement": "Top (line fit, sigmoidal 4PL) of cell viability, CK1a", "setting": "[1]; FLAG-CK1a WT cells", "value": 80.73, "unit": "%"},
      {"measurement": "IC50", "setting": "[1]; Homo sapiens, MOLM-13, read-out: IC50 (line fit, sigmoidal 4PL) of cell viability, CK1a", "value": 5.26, "unit": "nM"}
    ]},
    {"smiles": "O=C1CCC(N2Cc3c(CNC(=O)c4ccc(F)cc4)cccc3C2=O)C(=O)N1", "note": "(stereo not drawn) [SJ7095]", "values": [
      {"measurement": "Antiproliferative effect in presence of excess lenalidomide", "setting": "MOLM-13 cells", "value": "abrogating the antiproliferative effects"}
    ]}
  ]
}
